For orientation: IC50 means the midpoint of a concentration-inhibition curve.

The target in this assay is T1, ALK5 kinase (Homo sapiens, UniProt P36897).
T1 construct: GST; purchased Thermo Fisher Scientific Solutions
T1 sequence (P36897 34-503): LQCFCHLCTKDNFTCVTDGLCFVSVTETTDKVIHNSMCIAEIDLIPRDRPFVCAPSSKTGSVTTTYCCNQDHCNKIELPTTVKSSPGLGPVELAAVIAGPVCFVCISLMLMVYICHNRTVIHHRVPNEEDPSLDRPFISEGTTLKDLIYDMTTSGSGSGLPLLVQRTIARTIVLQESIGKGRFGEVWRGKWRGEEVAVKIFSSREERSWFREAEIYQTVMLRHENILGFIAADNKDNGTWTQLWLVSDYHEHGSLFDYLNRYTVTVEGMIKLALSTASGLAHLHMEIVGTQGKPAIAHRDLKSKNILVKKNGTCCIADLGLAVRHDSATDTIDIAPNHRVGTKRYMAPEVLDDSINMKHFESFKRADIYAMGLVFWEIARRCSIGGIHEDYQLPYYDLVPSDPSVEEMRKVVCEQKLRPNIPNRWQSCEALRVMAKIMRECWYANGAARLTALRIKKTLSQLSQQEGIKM
The experiment in a line: Activity inhibition test on ALK5 enzyme (LanthaScreen Eu binding kinase assay). The note with it: kinase tracer 178, 60 minutes at room temperature. The procedure, abridged: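 IC50 is the concentration giving 50% inhibition relative to control, taken from fluorescence after 60 min stirring at room temperature. Final mix held kinase 5 nM, Eu-GST binding antibody 2 nM and tracer 178 10 nM. Compounds were serially diluted from 1 μM to 0.0001 μM.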
(Time-resolved FRET reads energy transfer from a long-lived donor to a nearby acceptor.)
For the molecule `COc1ccccc1NC(=O)c1cc(-c2ccc3ncnn3c2)n(-c2cccc(C)n2)n1` [Example 90, 5-([1,2,4]triazolo[1,5-α]pyridin-6-yl)-N-(2-methoxyphenyl)-1-(6-methylpyridin-2-yl)-1H-pyrazole-3-carboxyamide], the IC50 is 5 nM.
The same measure for `CNS(=O)(=O)c1cccc(NC(=O)c2cc(-c3ccc4ncsc4c3)n(-c3cccc(C)n3)n2)c1` [Example 47, 5-(benzo[d]thiazol-6-yl)-1-(6-methylpyridin-2-yl)-N-(3-(N-methylsulfamoyl)phenyl)-1H-pyrazole-3-carboxyamide]: 1.2 nM; for `C=Cc1ccc(NC(=O)c2cc(-c3ccc4ncnn4c3)n(-c3cccc(C)n3)n2)cc1` [Example 119, 5-([1,2,4]triazolo[1,5-α]pyridin-6-yl)-1-(6-methylpyridin-2-yl)-N-(4-vinylphenyl)-1H-pyrazole-3-carboxyamide]: less than 10 nM.
On to `Cc1cccc(-n2nc(C(=O)Nc3ccc(Cl)nc3)cc2-c2ccc3ncsc3c2)n1` [Example 73, 5-(benzo[d]thiazol-6-yl)-N-(6-chloropyridin-3-yl)-1-(6-methylpyridin-2-yl)-1H-pyrazole-3-carboxyamide], for which the IC50 was 5.8 nM.
The figure for `COc1ccc(NC(=O)c2cc(-c3ccnc4ccccc34)n(-c3cccc(C)n3)n2)c(F)c1` [Example 216, N-(2-fluoro-4-methoxyphenyl)-1-(6-methylpyridin-2-yl)-5-(quinolin-4-yl)-1H-pyrazole-3-carboxyamide] is approximately 100 nM.
Molecule `Cc1cccc(-n2nc(C(=O)NCc3ccc(F)cc3)cc2-c2ccc3ncnn3c2)n1` [Example 157, 5-([1,2,4]triazolo[1,5-α]pyridin-6-yl)-N-(4-fluorobenzyl)-1-(6-methylpyridin-2-yl)-1H-pyrazole-3-carboxyamide] showed a half-maximal inhibitory concentration (IC50) of 10 to 100 nM.
`Cc1cccc(-n2nc(C(=O)Nc3cccc(C#N)c3)cc2-c2ccc3ncsc3c2)n1` [Example 22] registered an IC50 of 10 to 100 nM.
With `Cc1cccc(-n2nc(C(=O)Nc3cccc(S(=O)(=O)NC4CC4)c3)cc2-c2ccc3ncsc3c2)n1` [Example 49, 5-(benzo[d]thiazol-6-yl)-N-(3-(N-cyclopropylsulfamoyl)phenyl)-1-(6-methylpyridin-2-yl)-1H-pyrazole-3-carboxyamide], the half-maximal inhibitory concentration (IC50) was 5.6 nM.
The figure for `CC(=O)Nc1ccc(NC(=O)c2cc(-c3ccc4ncsc4c3)n(-c3cccc(C)n3)n2)cc1` [Example 26, 5-(benzo[d]thiazol-6-yl)-N-(4-acetamidophenyl)-1-(6-methylpyridin-2-yl)-1H-pyrazole-3-carboxyamide] is 10 to 100 nM; for `Cc1cccc(-n2nc(C(=O)Nc3ccc(Cl)cc3F)cc2-c2ccc3ncnn3c2)n1` [Example 139, 5-([1,2,4]triazolo[1,5-α]pyridin-6-yl)-N-(4-chloro-2-fluorophenyl)-1-(6-methylpyridin-2-yl)-1H-pyrazole-3-carboxyamide] it is 10 to 100 nM.
The molecule `Cc1cccc(-n2nc(C(=O)Nc3ccc(OC(F)(F)F)cc3)cc2-c2ccc3ncnn3c2)n1` [Example 101, 5-([1,2,4]triazolo[1,5-α]pyridin-6-yl)-1-(6-methylpyridin-2-yl)-N-(4-(trifluoromethoxy)phenyl)-1H-pyrazole-3-carboxyamide] showed an IC50 of 10 to 100 nM.
The same measure for `Cc1cccc(-n2nc(C(=O)Nc3ccccc3OC(F)(F)F)cc2-c2ccc3ncnn3c2)n1` [Example 99, 5-([1,2,4]triazolo[1,5-α]pyridin-6-yl)-1-(6-methylpyridin-2-yl)-N-(2-(trifluoromethoxy)phenyl)-1H-pyrazole-3-carboxyamide]: approximately 10 nM.
For the molecule `Cc1cccc(-n2nc(C(=O)Nc3ccc(S(C)(=O)=O)nc3)cc2-c2ccc3ncsc3c2)n1` [Example 69, 5-(benzo[d]thiazol-6-yl)-N-(6-(methylsulfonyl)pyridin-3-yl)-1-(6-methylpyridin-2-yl)-1H-pyrazole-3-carboxyamide], the IC50 was found to be 4.9 nM.
The same measure for `COc1ccc(NC(=O)c2cc(-c3ccc4ncsc4c3)n(-c3cccc(C)n3)n2)cn1` [Example 65, 5-(benzo[d]thiazol-6-yl)-N-(6-methoxypyridin-3-yl)-1-(6-methylpyridin-2-yl)-1H-pyrazole-3-carboxyamide]: less than 10 nM.
As for `Cc1cccc(-n2nc(C(=O)Nc3cccc(C(F)(F)F)c3)cc2-c2ccc3ncsc3c2)n1` [Example 21, 5-(benzo[d]thiazol-6-yl)-N-(3-(trifluoromethyl)phenyl)-1-(6-methylpyridin-2-yl)-1H-pyrazole-3-carboxyamide], the IC50 is approximately 100 nM.
As to `Cc1cccc(-n2nc(C(=O)Nc3ccc(S(C)(=O)=O)cc3)cc2-c2ccnc3ccccc23)n1` [Example 211, 1-(6-methylpyridin-2-yl)-N-(4-(methylsulfonyl)phenyl)-5-(quinolin-4-yl)-1H-pyrazole-3-carboxyamide], the IC50 is less than 10 nM.
The figure for `Cc1cccc(-n2nc(C(=O)Nc3cccc(OC(F)(F)F)c3)cc2-c2ccc3ncnn3c2)n1` [Example 100, 5-([1,2,4]triazolo[1,5-α]pyridin-6-yl)-1-(6-methylpyridin-2-yl)-N-(3-(trifluoromethoxy)phenyl)-1H-pyrazole-3-carboxyamide] is 10 to 100 nM; for `Cc1cccc(-n2nc(C(=O)NCc3ccc(F)cc3)cc2-c2ccc3ncsc3c2)n1` [Example 79, 5-(benzo[d]thiazol-6-yl)-N-(4-fluorobenzyl)-1-(6-methylpyridin-2-yl)-1H-pyrazole-3-carboxyamide] it is 5.6 nM.
In the case of `Cc1cccc(-n2nc(C(=O)Nc3ccc(S(C)(=O)=O)cc3)cc2-c2ccc3ncsc3c2)n1` [Example 41, 5-(benzo[d]thiazol-6-yl)-1-(6-methylpyridin-2-yl)-N-(4-(methylsulfonyl)phenyl)-1H-pyrazole-3-carboxyamide], the 50% inhibitory concentration (IC50) was found to be 5.2 nM.
The same measure for `Cc1cccc(-n2nc(C(=O)Nc3ccc(N4CC5CCCNC5C4)c(Cl)c3)cc2-c2ccc3ncsc3c2)n1` (stereo not drawn) [Example 17, 5-(benzo[d]thiazol-6-yl)-N-(3-chloro-4-(octahydro-6H-pyrrolo[3,4-b]pyridin-6-yl)phenyl)-1-(6-methylpyridin-2-yl)-1H-pyrazole-3-carboxyamide]: 14 nM; for `Cc1cccc(-n2nc(C(=O)Nc3ccc4c(c3)OCO4)cc2-c2ccc3nccnc3c2)n1` [Example 168, N-(benzo[d][1,3]dioxol-5-yl)-1-(6-methylpyridin-2-yl)-5-(quinoxalin-6-yl)-1H-pyrazole-3-carboxyamide]: not above 100 nM.
